Measurements as given in ChEMBL document CHEMBL1201862, “PubChem BioAssay data set” (2004).
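Where inhibition never reached the appropriate level, the endpoint shown equals the highest concentration tested. Otherwise, values were interpolated linearly from a five-concentration, 48-hour dose response in 96-well plates. GI50 marks 50% less growth.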 Activity calls are given as the source filed them. No stated cut-off is given here; in the data, active = GI50 up to about 1.1 µM and inactive = higher.

Columns and labels:
Assay in all cases: NCI anticancer screen, dose series, 48 h
A549 = test system: A549
EKVX = test system: EKVX
LXFL 529 = test system: LXFL 529
HCT-15 = test system: HCT-15
HOP-18 = test system: HOP-18
M14 = test system: M14
SN12C = test system: SN12C
SW-620 = test system: SW-620
KM-20L2 = test system: KM-20L2
SF-268 = test system: SF-268
RPMI-8226 = test system: RPMI-8226
TK-10 = test system: TK-10
K562 = test system: K562
NCI-H460 = test system: NCI-H460
SK-MEL-28 = test system: SK-MEL-28
U-251 = test system: U-251
UO-31 = test system: UO-31
A498 = test system: A498
DMS-114 = test system: DMS-114
SK-MEL-5 = test system: SK-MEL-5
MOLT-4 = test system: MOLT-4
HCT-116 = test system: HCT-116
IGROV-1 = test system: IGROV-1
M19-MEL = test system: M19-MEL
OVCAR-8 = test system: OVCAR-8
LOX IMVI = test system: LOX IMVI
SF-539 = test system: SF-539
XF498 = test system: XF498
HT-29 = test system: HT-29
DLD-1 = test system: DLD-1
HL-60 = test system: HL-60
COLO 205 = test system: COLO 205
CCRF-CEM = test system: CCRF-CEM
SK-OV-3 = test system: SK-OV-3
DMS-273 = test system: DMS-273
UACC-62 = test system: UACC-62
SF-295 = test system: SF-295
ACHN = test system: ACHN
786-0 = test system: 786-0
HOP-92 = test system: HOP-92
OVCAR-4 = test system: OVCAR-4
UACC-257 = test system: UACC-257
HOP-62 = test system: HOP-62
SNB-19 = test system: SNB-19
OVCAR-5 = test system: OVCAR-5
OVCAR-3 = test system: OVCAR-3
CAKI-1 = test system: CAKI-1
NCI-H522 = test system: NCI-H522
KM12 = test system: KM12
HCC 2998 = test system: HCC 2998
SK-MEL-2 = test system: SK-MEL-2
SNB-75 = test system: SNB-75
RXF 393 = test system: RXF 393
NCI-H23 = test system: NCI-H23
SNB-78 = test system: SNB-78
Malme-3M = test system: Malme-3M
SR = test system: SR
PC-3 = test system: PC-3
MCF7 = test system: MCF7
Hs-578T = test system: Hs-578T
NCI/ADR-RES = test system: NCI/ADR-RES
MDA-MB-231 = test system: MDA-MB-231
BT-549 = test system: BT-549
T47D = test system: T47D
DU-145 = test system: DU-145
MDA-MB-435 = test system: MDA-MB-435
MDA-N = test system: MDA-N
NCI-H226 = test system: NCI-H226

COc1ccc(/C=C/C(=O)c2c(-c3ccccc3)nn(C)c(=O)c2N2CCCC2)cc1
GI50 (A549): > 100 µM (inactive)
GI50 (EKVX): > 100 µM (inactive)
GI50 (LXFL 529): > 100 µM (inactive)
GI50 (HCT-15): > 100 µM
GI50 (HOP-18): > 100 µM (inactive)
GI50 (M14): > 100 µM (inactive)
GI50 (SN12C): > 100 µM (inactive)
GI50 (SW-620): > 100 µM (inactive)
GI50 (KM-20L2): > 100 µM (inactive)
GI50 (SF-268): 87.3 µM (inactive)
GI50 (RPMI-8226): > 100 µM (inactive)
GI50 (TK-10): > 100 µM (inactive)
GI50 (K562): 57.3 µM (inactive)
GI50 (NCI-H460): > 100 µM (inactive)
GI50 (SK-MEL-28): > 100 µM (inactive)
GI50 (U-251): > 100 µM (inactive)
GI50 (UO-31): > 100 µM (inactive)
GI50 (A498): > 100 µM (inactive)
GI50 (DMS-114): > 100 µM (inactive)
GI50 (SK-MEL-5): > 100 µM (inactive)
GI50 (MOLT-4): 36.9 µM (inactive)
GI50 (HCT-116): 87.9 µM (inactive)
GI50 (IGROV-1): > 100 µM (inactive)
GI50 (M19-MEL): > 100 µM (inactive)
GI50 (OVCAR-8): > 100 µM (inactive)
GI50 (LOX IMVI): > 100 µM (inactive)
GI50 (SF-539): 69.2 µM (inactive)
GI50 (XF498): > 100 µM (inactive)
GI50 (HT-29): > 100 µM (inactive)
GI50 (DLD-1): > 100 µM (inactive)
GI50 (HL-60): 20.9 µM (inactive)
GI50 (COLO 205): > 100 µM (inactive)
GI50 (CCRF-CEM): > 100 µM (inactive)
GI50 (SK-OV-3): > 100 µM (inactive)
GI50 (DMS-273): > 100 µM (inactive)
GI50 (UACC-62): > 100 µM (inactive)
GI50 (SF-295): 70.5 µM (inactive)
GI50 (ACHN): > 100 µM (inactive)
GI50 (786-0): 82 µM (inactive)
GI50 (HOP-92): 3.69 µM (inactive)

CC1=C(/C(C)=N/NC(=O)C(N)=O)Sc2ccccc2N1
GI50 (OVCAR-4): > 100 µM (inactive)
GI50 (A549): > 100 µM (inactive)
GI50 (EKVX): > 100 µM (inactive)
GI50 (LXFL 529): > 100 µM (inactive)
GI50 (UACC-257): > 100 µM (inactive)
GI50 (HCT-15): > 100 µM
GI50 (HOP-62): > 100 µM (inactive)
GI50 (HOP-18): > 100 µM (inactive)
GI50 (M14): > 100 µM (inactive)
GI50 (SN12C): > 100 µM (inactive)
GI50 (SW-620): > 100 µM (inactive)
GI50 (KM-20L2): > 100 µM (inactive)
GI50 (SNB-19): > 100 µM (inactive)
GI50 (SF-268): > 100 µM (inactive)
GI50 (RPMI-8226): > 100 µM (inactive)
GI50 (TK-10): > 100 µM (inactive)
GI50 (K562): > 100 µM (inactive)
GI50 (NCI-H460): > 100 µM (inactive)
GI50 (SK-MEL-28): > 100 µM (inactive)
GI50 (OVCAR-5): > 100 µM (inactive)
GI50 (OVCAR-3): > 100 µM (inactive)
GI50 (U-251): > 100 µM (inactive)
GI50 (UO-31): > 100 µM (inactive)
GI50 (A498): > 100 µM (inactive)
GI50 (CAKI-1): > 100 µM (inactive)
GI50 (DMS-114): > 100 µM (inactive)
GI50 (SK-MEL-5): > 100 µM (inactive)
GI50 (MOLT-4): > 100 µM (inactive)
GI50 (NCI-H522): > 100 µM (inactive)
GI50 (HCT-116): 10 µM (inactive)
GI50 (KM12): > 100 µM (inactive)
GI50 (IGROV-1): > 100 µM (inactive)
GI50 (M19-MEL): > 100 µM (inactive)
GI50 (OVCAR-8): > 100 µM (inactive)
GI50 (LOX IMVI): > 100 µM (inactive)
GI50 (HCC 2998): > 100 µM (inactive)
GI50 (SK-MEL-2): > 100 µM (inactive)
GI50 (SF-539): > 100 µM (inactive)
GI50 (XF498): > 100 µM (inactive)
GI50 (SNB-75): 65.8 µM (inactive)
GI50 (RXF 393): > 100 µM (inactive)
GI50 (HT-29): > 100 µM (inactive)
GI50 (DLD-1): > 100 µM (inactive)
GI50 (HL-60): > 100 µM (inactive)
GI50 (NCI-H23): > 100 µM (inactive)
GI50 (SNB-78): > 100 µM (inactive)
GI50 (COLO 205): > 100 µM (inactive)
GI50 (CCRF-CEM): > 100 µM (inactive)
GI50 (SK-OV-3): > 100 µM (inactive)
GI50 (DMS-273): > 100 µM (inactive)
GI50 (Malme-3M): > 100 µM (inactive)
GI50 (UACC-62): > 100 µM (inactive)
GI50 (SF-295): > 100 µM (inactive)
GI50 (ACHN): > 100 µM (inactive)
GI50 (786-0): > 100 µM (inactive)
GI50 (HOP-92): 95.1 µM (inactive)

CC1=CCCC2C1(C)CCC(C)C2(C)Cc1cc(O)ccc1O (stereo not drawn)
GI50 (OVCAR-4): 10.8 µM (inactive)
GI50 (A549): 5.62 µM (inactive)
GI50 (EKVX): 6.27 µM (inactive)
GI50 (SR): 5.46 µM (inactive)
GI50 (UACC-257): 13.2 µM (inactive)
GI50 (PC-3): 5.75 µM (inactive)
GI50 (MCF7): 5.62 µM (inactive)
GI50 (HCT-15): 8.73 µM
GI50 (HOP-62): 13.5 µM (inactive)
GI50 (HOP-18): 19.2 µM (inactive)
GI50 (Hs-578T): 6.19 µM (inactive)
GI50 (M14): 14.4 µM (inactive)
GI50 (SN12C): 8.3 µM (inactive)
GI50 (SW-620): 6.12 µM (inactive)
GI50 (KM-20L2): 10.8 µM (inactive)
GI50 (SNB-19): 5.68 µM (inactive)
GI50 (SF-268): 7.26 µM (inactive)
GI50 (RPMI-8226): 2.86 µM (inactive)
GI50 (TK-10): 11.1 µM (inactive)
GI50 (K562): 4.81 µM (inactive)
GI50 (NCI-H460): 5.69 µM (inactive)
GI50 (SK-MEL-28): 14.1 µM (inactive)
GI50 (OVCAR-5): 21 µM (inactive)
GI50 (OVCAR-3): 5.74 µM (inactive)
GI50 (U-251): 4.26 µM (inactive)
GI50 (UO-31): 4.84 µM (inactive)
GI50 (NCI/ADR-RES): 5.21 µM (inactive)
GI50 (A498): 12.9 µM (inactive)
GI50 (CAKI-1): 7.1 µM (inactive)
GI50 (DMS-114): 4.2 µM (inactive)
GI50 (SK-MEL-5): 9.16 µM (inactive)
GI50 (MOLT-4): 2.43 µM (inactive)
GI50 (NCI-H522): 3.18 µM (inactive)
GI50 (HCT-116): 4 µM (inactive)
GI50 (KM12): 5.94 µM (inactive)
GI50 (MDA-MB-231): 12.9 µM (inactive)
GI50 (IGROV-1): 5.94 µM (inactive)
GI50 (BT-549): 5.22 µM (inactive)
GI50 (M19-MEL): 5.57 µM (inactive)
GI50 (OVCAR-8): 4.54 µM (inactive)
GI50 (LOX IMVI): 5.48 µM (inactive)
GI50 (HCC 2998): 8.59 µM (inactive)
GI50 (SK-MEL-2): 9.06 µM (inactive)
GI50 (SF-539): 8.34 µM (inactive)
GI50 (T47D): 6.59 µM (inactive)
GI50 (XF498): 7.23 µM (inactive)
GI50 (SNB-75): 7.66 µM (inactive)
GI50 (DU-145): 15 µM (inactive)
GI50 (RXF 393): 7.6 µM (inactive)
GI50 (HT-29): 18.7 µM (inactive)
GI50 (DLD-1): 6.34 µM (inactive)
GI50 (HL-60): 1.22 µM (inactive)
GI50 (NCI-H23): 4.44 µM (inactive)
GI50 (SNB-78): 2.59 µM (inactive)
GI50 (MDA-MB-435): 7.24 µM (inactive)
GI50 (COLO 205): 14.8 µM (inactive)
GI50 (CCRF-CEM): 1.56 µM (inactive)
GI50 (SK-OV-3): 14.6 µM (inactive)
GI50 (DMS-273): 4.91 µM (inactive)
GI50 (Malme-3M): 17.7 µM (inactive)
GI50 (UACC-62): 8.49 µM (inactive)
GI50 (SF-295): 6.3 µM (inactive)
GI50 (ACHN): 11.9 µM (inactive)
GI50 (MDA-N): 11.1 µM (inactive)
GI50 (786-0): 7.24 µM (inactive)
GI50 (NCI-H226): 9.29 µM (inactive)
GI50 (HOP-92): 5.79 µM (inactive)
